In ChEMBL document CHEMBL5712895, “PRC2 Is Dispensable in Vivo for β-Catenin-Mediated Repression of Chondrogenesis in the Mouse Embryonic Cranial Mesenchyme” (G3 (Bethesda), 2018):
pIC50: −log10 of the molar value. Active and inactive are the calls of the source. No cut-off for these calls is given here.

Legend:
[1] = biological target: Histone-lysine N-methyltransferase EZH2 (Mus musculus) (UniProt Q61188); test: Inhibition of EZH2 in mouse primary cranial mesenchyme ectoderm fibroblast assessed as reduction in H3K27me3 protein level at 150 to 2000 nM by Western blotting analysis; conditions: dose 150-2000 nM
[2] = biological target: Histone-lysine N-methyltransferase EZH2 (Mus musculus) (UniProt Q61188); test: Inhibition of EZH2 in mouse primary cranial mesenchyme ectoderm fibroblast assessed as increase in Sox9 mRNA level by qPCR analysis
[3] = biological target: T1, Histone-lysine N-methyltransferase EZH1 (Homo sapiens, UniProt Q92800); test: Inhibition of EZH1 (unknown origin)
T1 sequence (Q92800 whole entry): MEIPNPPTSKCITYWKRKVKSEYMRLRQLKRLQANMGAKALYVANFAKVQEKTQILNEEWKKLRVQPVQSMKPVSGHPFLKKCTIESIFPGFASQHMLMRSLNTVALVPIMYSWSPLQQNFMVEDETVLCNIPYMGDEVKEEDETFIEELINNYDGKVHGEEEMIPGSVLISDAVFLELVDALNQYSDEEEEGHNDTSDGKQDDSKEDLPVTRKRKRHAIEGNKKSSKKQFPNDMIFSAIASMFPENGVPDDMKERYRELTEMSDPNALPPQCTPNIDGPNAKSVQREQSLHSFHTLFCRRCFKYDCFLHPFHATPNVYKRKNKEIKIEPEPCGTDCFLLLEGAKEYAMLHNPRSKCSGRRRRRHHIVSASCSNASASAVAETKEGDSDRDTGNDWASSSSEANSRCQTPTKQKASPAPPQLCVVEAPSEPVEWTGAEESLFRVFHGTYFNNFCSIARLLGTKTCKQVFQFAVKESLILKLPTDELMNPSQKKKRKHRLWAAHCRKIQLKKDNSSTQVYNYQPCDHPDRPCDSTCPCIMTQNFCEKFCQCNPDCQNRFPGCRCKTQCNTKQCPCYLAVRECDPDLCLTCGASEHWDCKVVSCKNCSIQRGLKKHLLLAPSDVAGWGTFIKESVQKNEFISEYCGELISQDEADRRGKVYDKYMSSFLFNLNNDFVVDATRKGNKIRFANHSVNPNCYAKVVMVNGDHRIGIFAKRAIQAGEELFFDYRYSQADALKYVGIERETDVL

[4] = biological target: Histone-lysine N-methyltransferase EZH2 (Mus musculus) (UniProt Q61188); test: Inhibition of EZH2 in mouse primary cranial mesenchyme ectoderm fibroblast assessed as reduction in H3K27me3 protein level at 500 to 2000 nM by Western blotting analysis; conditions: dose 500-2000 nM
[5] = biological target: Histone-lysine N-methyltransferase EZH2 (Homo sapiens, UniProt Q15910); test: Inhibition of EZH2 (unknown origin)
Chain of Histone-lysine N-methyltransferase EZH2 (Q15910 whole entry): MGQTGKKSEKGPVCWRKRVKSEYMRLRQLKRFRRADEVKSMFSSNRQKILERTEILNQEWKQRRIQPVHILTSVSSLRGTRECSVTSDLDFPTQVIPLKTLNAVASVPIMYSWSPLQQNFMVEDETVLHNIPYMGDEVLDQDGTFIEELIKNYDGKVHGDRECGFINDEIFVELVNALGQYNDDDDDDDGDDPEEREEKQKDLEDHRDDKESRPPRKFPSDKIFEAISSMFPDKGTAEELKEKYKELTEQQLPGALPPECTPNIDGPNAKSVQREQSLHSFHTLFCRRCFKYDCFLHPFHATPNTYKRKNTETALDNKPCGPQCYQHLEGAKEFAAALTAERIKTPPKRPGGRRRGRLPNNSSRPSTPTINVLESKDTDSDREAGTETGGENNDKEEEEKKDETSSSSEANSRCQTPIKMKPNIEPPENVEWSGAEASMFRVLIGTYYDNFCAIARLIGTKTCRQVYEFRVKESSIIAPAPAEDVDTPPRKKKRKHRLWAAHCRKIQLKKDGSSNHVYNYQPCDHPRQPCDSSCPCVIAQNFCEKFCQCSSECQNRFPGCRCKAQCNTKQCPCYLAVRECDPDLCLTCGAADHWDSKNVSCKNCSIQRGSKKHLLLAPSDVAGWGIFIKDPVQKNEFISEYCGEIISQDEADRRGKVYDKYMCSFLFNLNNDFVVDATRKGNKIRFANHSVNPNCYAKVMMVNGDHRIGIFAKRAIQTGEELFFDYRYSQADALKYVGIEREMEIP

Chain of Histone-lysine N-methyltransferase EZH2 (Mus musculus) (Q61188 whole entry): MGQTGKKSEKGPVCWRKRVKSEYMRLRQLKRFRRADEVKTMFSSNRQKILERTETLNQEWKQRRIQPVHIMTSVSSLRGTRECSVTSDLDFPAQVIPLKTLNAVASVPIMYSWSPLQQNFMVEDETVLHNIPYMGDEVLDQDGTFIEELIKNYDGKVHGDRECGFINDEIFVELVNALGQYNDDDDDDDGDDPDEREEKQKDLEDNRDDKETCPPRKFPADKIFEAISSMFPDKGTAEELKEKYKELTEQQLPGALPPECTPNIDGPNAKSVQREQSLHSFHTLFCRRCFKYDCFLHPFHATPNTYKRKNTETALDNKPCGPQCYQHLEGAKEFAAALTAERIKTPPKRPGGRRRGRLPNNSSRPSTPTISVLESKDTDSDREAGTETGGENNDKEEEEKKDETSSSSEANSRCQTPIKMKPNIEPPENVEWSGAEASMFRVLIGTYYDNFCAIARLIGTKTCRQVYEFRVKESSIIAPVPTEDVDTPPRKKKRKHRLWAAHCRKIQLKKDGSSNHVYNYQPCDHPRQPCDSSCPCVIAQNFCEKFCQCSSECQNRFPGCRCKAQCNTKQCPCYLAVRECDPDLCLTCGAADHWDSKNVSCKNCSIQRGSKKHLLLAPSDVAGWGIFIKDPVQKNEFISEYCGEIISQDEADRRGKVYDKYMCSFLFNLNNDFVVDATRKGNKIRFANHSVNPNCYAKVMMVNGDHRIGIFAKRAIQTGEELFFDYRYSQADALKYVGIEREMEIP

Row | Structure (SMILES) | inhibition [1] | inhibition [2] | pIC50 [3] | inhibition [4] | pIC50 [5]
1 | CC[C@H](C)n1cc(C)c2c(C(=O)NCc3c(C)cc(C)[nH]c3=O)cc(-c3ccc(N4CCNCC4)nc3)cc21 [GSK2816126] | Active | inactive | 7.12 | – | –
2 | CCCc1cc(C)[nH]c(=O)c1CNC(=O)c1cc(-c2ccc(N3CCN(C(C)C)CC3)nc2)cc2c1cnn2C(C)C | – | inactive | – | Active | > 8.00
